From article PMC7240968, “Synthesis and Biological Evaluation of Imidazo[2,1-b]Thiazole based Sulfonyl Piperazines as Novel Carbonic Anhydrase II Inhibitors” (Metabolites, 2020)

Columns and labels:
[1] = target: T1, hCA II (Homo sapiens, UniProt P00918); assay: stopped flow CO2 hydrase assay, hCA II; format: biochemical; details: recombinant cytosolic isoform; mean from 3 different assays, errors ±5–10%
T1 construct: made in house
Procedure: (§1) The newly synthesized imidazo[2,1-b]thiazole-sulfonyl piperazines (9aa-ee) were screened for their CA inhibition activity against cytosolic (hCA I, hCA II) and the tumor associated (hCA IX, hCAXII) isoforms by a stopped flow CO2 hydrase assay.
(§2) The inhibition assay of selected CA isozymes was performed using SX.18V-R Applied Photophysics (Oxford, UK) stopped flow instrument. 10 mM Hepes (pH 7.4) as a buffer, with Phenol Red (at a concentration of 0.2 mM) as an indicator, 0.1M Na2SO4 or NaClO4 (To maintain the constant ionic strength; these anions are not inhibitory in the used concentration), following the CA-catalyzed CO2 hydration reaction for a period of 5–10 s. […] Stock solutions of inhibitors were prepared at a concentration of 10 mM (in DMSO-water 1:1 v/v) and dilutions up to 0.01 nM done with the assay buffer mentioned above. […] Inhibitor and enzyme solutions were pre-incubated together for 10 min at room temperature prior to assay, in order to allow for the formation of the E-I complex. […] The inhibition constants were obtained by non-linear least square methods using the Cheng-Prusoff equation, as reported earlier, [24, 25] and represent the mean from at least three different determinations. All CA isozymes used here were recombinant proteins obtained as reported earlier by our group.

[2] = target: T2, hCA XII (Homo sapiens, UniProt O43570); assay: stopped flow CO2 hydrase assay, hCA XII; format: biochemical; details: recombinant tumor associated isoform; mean from 3 different assays, errors ±5–10%
T2 construct: made in house
T2 sequence (O43570 25-354): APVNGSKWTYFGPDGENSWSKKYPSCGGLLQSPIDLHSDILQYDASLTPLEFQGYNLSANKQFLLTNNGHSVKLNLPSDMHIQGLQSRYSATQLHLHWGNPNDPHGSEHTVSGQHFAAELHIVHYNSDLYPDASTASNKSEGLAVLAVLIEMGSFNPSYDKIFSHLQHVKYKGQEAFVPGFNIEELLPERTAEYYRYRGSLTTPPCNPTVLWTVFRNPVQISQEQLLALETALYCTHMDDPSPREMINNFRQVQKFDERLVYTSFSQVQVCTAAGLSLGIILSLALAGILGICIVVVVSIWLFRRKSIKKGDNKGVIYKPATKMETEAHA
Procedure: as §1, §2

[3] = target: T3, hCA IX (Homo sapiens, UniProt Q16790); assay: stopped flow CO2 hydrase assay, hCA IX; format: biochemical; details: recombinant tumor associated isoform; mean from 3 different assays, errors ±5–10%
T3 construct: made in house
Procedure: as §1, §2

[4] = target: T4, hCA I (Homo sapiens, UniProt P00915); assay: stopped flow CO2 hydrase assay, hCA I; format: biochemical; details: recombinant cytosolic isoform; mean from 3 different assays, errors ±5–10%
T4 construct: made in house
T4 sequence (P00915 whole entry, canonical isoform): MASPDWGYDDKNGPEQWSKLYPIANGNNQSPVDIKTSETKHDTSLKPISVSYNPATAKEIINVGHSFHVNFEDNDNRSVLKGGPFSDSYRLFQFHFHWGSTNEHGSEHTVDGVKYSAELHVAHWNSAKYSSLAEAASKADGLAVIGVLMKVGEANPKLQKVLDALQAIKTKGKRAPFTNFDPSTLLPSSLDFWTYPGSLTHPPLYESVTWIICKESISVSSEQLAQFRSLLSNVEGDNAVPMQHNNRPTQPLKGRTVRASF
Procedure: as §1, §2

Compound	Ki [1]	Ki [2]	Ki [3]	Ki [4]	melting point
(5-Phenylimidazo[2,1-b]thiazol-2-yl)(4-tosylpiperazin-1-yl)methanone [Compound 9eb]	> 100 µM	> 100 µM	> 100 µM	> 100 µM	–
(4-((4-(Tert-butyl)phenyl)sulfonyl)piperazin-1-yl)(5-(4-chlorophenyl)imidazo[2,1-b]thiazol-2-yl)methanone [Compound 9ce]	62.1 µM	> 100 µM	> 100 µM	> 100 µM	–
(5-(4-Methoxyphenyl)imidazo[2,1-b]thiazol-2-yl)(4-(phenylsulfonyl)piperazin-1-yl)methanone [Compound 9ad]	> 100 µM	> 100 µM	> 100 µM	> 100 µM	–
(5-(p-Tolyl)imidazo[2,1-b]thiazol-2-yl)(4-tosylpiperazin-1-yl)methanone [Compound 9bb]	76.4 µM	> 100 µM	> 100 µM	> 100 µM	–
(4-((4-(Tert-butyl)phenyl)sulfonyl)piperazin-1-yl)(5-(4-fluorophenyl)imidazo[2,1-b]thiazol-2-yl)methanone [Compound 9de]	> 100 µM	> 100 µM	> 100 µM	> 100 µM	–
(5-(4-Fluorophenyl)imidazo[2,1-b]thiazol-2-yl)(4-(phenylsulfonyl)piperazin-1-yl)methanone [Compound 9dd]	> 100 µM	> 100 µM	> 100 µM	> 100 µM	–
(5-(4-Chlorophenyl)imidazo[2,1-b]thiazol-2-yl)(4-(phenylsulfonyl)piperazin-1-yl)methanone [Compound 9cd]	71.2 µM	> 100 µM	> 100 µM	> 100 µM	–
(5-(4-Fluorophenyl)imidazo[2,1-b]thiazol-2-yl)(4-tosylpiperazin-1-yl)methanone [Compound 9db]	> 100 µM	> 100 µM	> 100 µM	> 100 µM	–
(5-Phenylimidazo[2,1-b]thiazol-2-yl)(4-(phenylsulfonyl)piperazin-1-yl)methanone [Compound 9ed]	> 100 µM	> 100 µM	> 100 µM	> 100 µM	–
(4-((4-Chlorophenyl)sulfonyl)piperazin-1-yl)(5-phenylimidazo[2,1-b]thiazol-2-yl)methanone [Compound 9ec]	> 100 µM	> 100 µM	> 100 µM	> 100 µM	–
(5-(4-Chlorophenyl)imidazo[2,1-b]thiazol-2-yl)(4-tosylpiperazin-1-yl)methanone [Compound 9cb]	> 100 µM	> 100 µM	> 100 µM	> 100 µM	–
(4-((4-Methoxyphenyl)sulfonyl)piperazin-1-yl)(5-phenylimidazo[2,1-b]thiazol-2-yl)methanone [Compound 9ea]	> 100 µM	> 100 µM	> 100 µM	> 100 µM	–
(4-((4-Chlorophenyl)sulfonyl)piperazin-1-yl)(5-(4-fluorophenyl)imidazo[2,1-b]thiazol-2-yl)methanone [Compound 9dc]	98.2 µM	> 100 µM	> 100 µM	> 100 µM	–
(4-((4-Methoxyphenyl)sulfonyl)piperazin-1-yl)(5-(p-tolyl)imidazo[2,1-b]thiazol-2-yl)methanone [Compound 9ba]	> 100 µM	> 100 µM	> 100 µM	> 100 µM	–
(5-(4-Chlorophenyl)imidazo[2,1-b]thiazol-2-yl)(4-((4-chlorophenyl)sulfonyl)piperazin-1-yl)methanone [Compound 9cc]	57.8 µM	> 100 µM	> 100 µM	> 100 µM	–
(5-(4-Chlorophenyl)imidazo[2,1-b]thiazol-2-yl)(4-((4-methoxyphenyl)sulfonyl)piperazin-1-yl)methanone [Compound 9ca]	79.9 µM	> 100 µM	> 100 µM	> 100 µM	–
Cc1ccc(-c2cnc3sc(C(=O)N4CCN(S(=O)(=O)c5ccc(C(C)(C)C)cc5)CC4)cn23)cc1 [Compound 9bd, (4-((4-(Tert-butyl)phenyl)sulfonyl)piperazin-1-yl)(5-(p-tolyl)imidazo[2,1-b]thiazol-2-yl)methanone]	–	–	–	–	222 to 224 °C
(5-(4-Methoxyphenyl)imidazo[2,1-b]thiazol-2-yl)(4-((4-methoxyphenyl)sulfonyl)piperazin-1-yl)methanone [Compound 9aa]	> 100 µM	> 100 µM	> 100 µM	> 100 µM	–
(5-(4-Fluorophenyl)imidazo[2,1-b]thiazol-2-yl)(4-((4-methoxyphenyl)sulfonyl)piperazin-1-yl)methanone [Compound 9da]	67.9 µM	> 100 µM	> 100 µM	> 100 µM	–
